One may read the pEC50 as −log10 of the EC50, conventionally taken in molar units.

pEC50: −log10 of the molar value.

The nature of the assay: HBV DNA Quantification Assay: A HepG2 cell line overexpressing the HBV virus attachment receptor sodium-taurocholate cotransporting polypeptide (NTCP) was grown to confluency in DMEM growth medium, Dulbecco's Modified Eagle Medium without sodium pyruvate (Life Technologies, Rockville, Md.) supplemented with 10% FBS (Thermo Scientific, Waltham, Md.), 1% penicillin/streptomycin (Life Technologies, Rockville, Md.) and 2 mM L-glutamine (Life Technologies, Rockville, Md.) in T175 flasks. Cells were infected with HBV AD38 viral particles (Texcell, Frederick, USA) at 4000 genome equivalents per cell. After allowing viral infection to take place for 4 days, the infected cells were harvested from the flasks by trypsinization, washed twice with OptiMEM (Life Technologies, Rockville, Md.) and re-suspended in DMEM containing 2% FBS and 1% DMSO at a density of 0.25E6 cells/ml. Infected cells were seeded on 384 well collagen coated plates (Greiner, Austria) at a density of 20,000 cells/well containing serially diluted compounds of the present disclosure or DMSO (0.5%) in a final volume of 80 μl. The assay plates were incubated for a period of 5 days and the antiviral activity of the test compounds were assayed by detecting the presence of HBV DNA in the culture supernatant using the QuantiGene™ 2.0 nucleic acid quantification kit (Affymetrix, Santa Clara, Calif.).The culture supernatant was harvested and treated with lysis buffer containing Proteinase K (Affymetrix, Santa Clara, Calif.). The supernatant was incubated with HBV viral DNA specific probes (Affymetrix, Santa Clara, Calif.) for 30 minutes at 55° C. This was followed by addition of 0.2M NaOH for 30 minutes at room temperature to denature the DNA, followed by addition of Neutralization buffer (Affymetrix, Santa Clara, Calif.). The resulting lysed and neutralized supernatant was then added to QuantiGene™ 2.0 384 well plates coated with capture oligonucleotides and incubated overnight at 55° C. The HBV specific probe set consists of Capture Extender oligonucleotides (CE's) and blocking probes. Following the overnight incubation, the wells were incubated for one hour sequentially with a Pre-Amplifier, Amplifier and Labeled probes conjugated to alkaline phosphatase with a wash step between incubations. After the final wash step, the alkaline phosphatase substrate (Luminol APS5) was added and the resulting luminescence signal was read in an EnVision Multilabel Plate Reader (PerkinElmer, Santa Clara, Calif.). The EC50 values were calculated from the fit of the dose-response curves to a four-parameter equation.
For the compound `CC(NC(=O)C(=O)c1c(Cl)c(C(=O)Nc2ccc(F)c(C#N)c2)n2c1CCC2)C(F)(F)F` (centres undefined), the pEC50 was 7.57. `Cc1c(C(=O)C(=O)NC2(C(=O)N3CC4(C3)CN(S(C)(=O)=O)C4)CC(F)(F)C2)c2n(c1C(=O)Nc1ccc(F)c(C#N)c1)CCC2`: the pEC50 was 6.95. With `Cc1c(C(=O)C(=O)NC2(C(=O)N3CC4(COC4)C3)CC(F)(F)C2)c2n(c1C(=O)Nc1ccc(F)c(C#N)c1)CCC2`, the pEC50 was 7.49. In the case of `CNC(=O)C1(NC(=O)C(=O)c2c(C)c(C(=O)OC)n3c2C[C@H]2C[C@H]23)CC(F)(F)C1` it was 8.06.

(Values after ChEMBL document CHEMBL5728170, “Substituted pyrrolizine compounds and uses thereof” (2020).)
